For this assay, the target named is NR1/NR2A (Homo sapiens (Human), UniProt Q05586+Q12879). Briefly: FDSS Ca2+ influx inhibition assay in HEK293 cells expressing NR1/NR2A. In kind it is cell-based. Particulars: 3 μM glutamate, 3 μM glycine, 1 mM Ca2+. The essentials:
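Fluo-8-loaded HEK293 NR1/NR2A cells preincubated 10 min with compound at 10 μM final (0.1% DMSO) in Ca2+/Mg2+-free HBSS with 20 mM HEPES. Stimulated with 3 μM glutamate, 3 μM glycine, 1 mM Ca2+; FDSS recording for 3 min, end/baseline fluorescence ratio compared with MK801.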

The mark [1] stands for this setting: inhibition relative to MK801, read-out: NR2A IC50.

The source of these data is US9963434B2, “N-arylmethyl sulfonamide negative modulators of NR2A” (LUC THERAPEUTICS, priority 2013, dated 2018).

Read-outs that look alike come from different tables or passages of the source.

NR1/NR2A, sequence (Q12879 23-1464, other chains not shown): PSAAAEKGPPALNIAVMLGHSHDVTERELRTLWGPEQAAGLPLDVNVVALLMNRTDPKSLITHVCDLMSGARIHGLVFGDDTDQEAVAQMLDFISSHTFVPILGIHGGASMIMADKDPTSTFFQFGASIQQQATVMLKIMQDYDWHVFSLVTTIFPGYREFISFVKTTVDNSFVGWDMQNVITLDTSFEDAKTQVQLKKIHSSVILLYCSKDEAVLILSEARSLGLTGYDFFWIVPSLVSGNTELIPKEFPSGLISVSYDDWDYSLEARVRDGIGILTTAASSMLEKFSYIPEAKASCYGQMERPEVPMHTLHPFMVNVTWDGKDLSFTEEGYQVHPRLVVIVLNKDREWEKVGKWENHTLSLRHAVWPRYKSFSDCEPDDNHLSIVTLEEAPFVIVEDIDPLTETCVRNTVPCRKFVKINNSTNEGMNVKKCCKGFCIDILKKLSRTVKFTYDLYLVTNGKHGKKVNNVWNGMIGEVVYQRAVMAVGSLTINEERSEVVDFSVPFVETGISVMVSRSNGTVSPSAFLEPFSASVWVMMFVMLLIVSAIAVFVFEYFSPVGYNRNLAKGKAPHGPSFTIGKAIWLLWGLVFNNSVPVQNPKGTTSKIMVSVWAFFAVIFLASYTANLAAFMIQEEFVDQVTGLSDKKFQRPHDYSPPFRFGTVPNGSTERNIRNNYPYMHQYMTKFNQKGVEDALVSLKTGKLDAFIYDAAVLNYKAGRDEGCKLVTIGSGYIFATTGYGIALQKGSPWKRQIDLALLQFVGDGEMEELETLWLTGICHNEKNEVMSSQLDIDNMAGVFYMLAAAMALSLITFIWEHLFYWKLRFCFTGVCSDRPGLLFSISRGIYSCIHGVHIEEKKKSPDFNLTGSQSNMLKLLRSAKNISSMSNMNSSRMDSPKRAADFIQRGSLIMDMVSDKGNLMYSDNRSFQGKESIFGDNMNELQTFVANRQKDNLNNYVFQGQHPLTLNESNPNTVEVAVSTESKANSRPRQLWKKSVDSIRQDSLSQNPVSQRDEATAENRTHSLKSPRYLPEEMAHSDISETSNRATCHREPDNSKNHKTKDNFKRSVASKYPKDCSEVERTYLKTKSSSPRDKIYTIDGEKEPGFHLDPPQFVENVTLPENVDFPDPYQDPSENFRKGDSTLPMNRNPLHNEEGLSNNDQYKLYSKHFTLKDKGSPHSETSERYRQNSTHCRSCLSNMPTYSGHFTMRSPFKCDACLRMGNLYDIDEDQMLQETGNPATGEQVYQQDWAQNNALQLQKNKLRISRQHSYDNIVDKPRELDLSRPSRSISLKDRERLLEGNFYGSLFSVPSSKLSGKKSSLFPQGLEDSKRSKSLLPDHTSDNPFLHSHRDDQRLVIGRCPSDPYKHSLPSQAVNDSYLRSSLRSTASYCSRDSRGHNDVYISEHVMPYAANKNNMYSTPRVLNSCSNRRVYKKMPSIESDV

As for `C[C@@H](NC(=O)c1ccc(CNS(=O)(=O)c2ccc(F)c(Cl)c2)cn1)c1cncs1` [5-(3-chloro-4-fluorobenzenesulfon-amidomethyl)-N-[(1R)-1-(1,3-thiazol-5-yl)ethyl]pyridine-2-carboxamide], the IC50 reads like this: under setting [1], 10 µM; (read-out: Binned Activity) greater than 10 µM.
The matching figures for `Cc1ncc(CNC(=O)c2ccc(CNS(=O)(=O)c3ccc(Cl)nc3)cn2)s1` [5-(6-chloropyridine-3-sulfonamidomethyl)-N-[(2-methyl-1,3-thiazol-5-yl)methyl]pyridine-2-carboxamide]: 10 µM and greater than 10 µM.
Consider `Cn1cnc(CNC(=O)c2ccc(CNS(=O)(=O)c3ccc(F)c(Cl)c3)nn2)c1` [6-(3-chloro-4-fluorobenzenesulfon-amidomethyl)-N-[(1-methyl-1H-imidazol-4-yl)methyl]pyridazine-3-carboxamide], for which the IC50 reads like this: under setting [1], 10 µM; (read-out: Binned Activity) greater than 10 µM.
Turning to `O=C(NCc1ccncc1)c1cnc(CNS(=O)(=O)c2ccc(F)c(Cl)c2)cn1` [5-(3-chloro-4-fluorobenzenesulfon-amidomethyl)-N-(pyridin-4-ylmethyl)pyrazine-2-carboxamide], the IC50 (read-out: Binned Activity) was 1 to 10 µM.
Regarding `O=C(NCc1ccco1)c1ccc(CNS(=O)(=O)c2ccc(F)c(Cl)c2)nn1` [6-(3-chloro-4-fluorobenzenesulfon-amidomethyl)-N-(furan-2-ylmethyl)pyridazine-3-carboxamide], the IC50 reads like this: under setting [1], 10 µM; (read-out: Binned Activity) greater than 10 µM.
In the same order, the values of `Cc1cc(CNC(=O)c2ccc(CNS(=O)(=O)c3ccc(F)c(Cl)c3)cn2)n(C)n1` [5-(3-chloro-4-fluorobenzenesulfon-amidomethyl)-N-[(1,3-dimethyl-1H-pyrazol-5-yl)methyl]pyridine-2-carboxamide] are 10 µM and greater than 10 µM.
In the same order, the values of `COc1ccc(CNC(=O)c2ccc(CNS(=O)(=O)c3ccc(F)c(Cl)c3)cn2)cc1` [5-(3-chloro-4-fluorobenzenesulfon-amidomethyl)-N-[(4-methoxyphenyl)methyl] pyridine-2-carboxamide] are 10 µM and greater than 10 µM.
The matching figures for `O=C(NCc1ncc(C(F)(F)F)cc1Cl)c1cnc(CNS(=O)(=O)c2ccc(F)c(Cl)c2)cn1` [5-(3-chloro-4-fluorobenzenesulfon-amidomethyl)-N-{[3-chloro-5-(trifluoromethyl)pyridin-2-yl]methyl}pyrazine-2-carboxamide]: 10 µM and greater than 10 µM.
Take `Cc1ncc(CNC(=O)c2cnc(CNS(=O)(=O)c3cccc(Cl)c3)cn2)s1` [5-(3-chlorobenzenesulfon-amidomethyl)-N-[(2-methyl-1,3-thiazol-5-yl)methyl]pyrazine-2-carboxamide]: the IC50 (read-out: Binned Activity) lay within 0.1 to 1 µM.
Regarding `Cc1cc(CNC(=O)c2ccc(CNS(=O)(=O)c3ccc(F)c(Cl)c3)nc2)n(C)n1` [6-(3-chloro-4-fluorobenzenesulfon-amidomethyl)-N-[(1,3-dimethyl-1H-pyrazol-5-yl)methyl]pyridine-3-carboxamide], the IC50 runs as follows: under setting [1], 10 µM; (read-out: Binned Activity) greater than 10 µM.
The matching figures for `Cc1ccncc1CNC(=O)c1ccc(CNS(=O)(=O)c2ccc(F)c(Cl)c2)nn1` [6-(3-chloro-4-fluorobenzenesulfon-amidomethyl)-N-[(4-methylpyridin-3-yl)methyl]pyridazine-3-carboxamide]: 10 µM and greater than 10 µM.
Take `Cc1ncc(CNC(=O)c2cnc(CNS(=O)(=O)c3cc(Cl)cc(Cl)c3)cn2)s1` [5-(3,5-dichlorobenzenesulfon-amidomethyl)-N-[(2-methyl-1,3-thiazol-5-yl)methyl]pyrazine-2-carboxamide]: the IC50 is 10 µM under setting [1] and greater than 10 µM (read-out: Binned Activity).
The matching figures for `Cc1ccc(CNC(=O)c2ccc(CNS(=O)(=O)c3ccc(F)c(Cl)c3)nc2)n1C` [6-(3-chloro-4-fluorobenzenesulfon-amidomethyl)-N-[(1,5-dimethyl-1H-pyrrol-2-yl)methyl]pyridine-3-carboxamide]: 10 µM and greater than 10 µM.
In the same order, the values of `Cc1ncc(CNC(=O)c2cnc(CNS(=O)(=O)c3ccc(Cl)c(Cl)c3)cn2)s1` [5-(3,4-dichlorobenzenesulfon-amidomethyl)-N-[(2-methyl-1,3-thiazol-5-yl)methyl]pyrazine-2-carboxamide] are 10 µM and greater than 10 µM.
The matching figures for `O=C(NCc1ncccn1)c1ccc(CNS(=O)(=O)c2ccc(F)c(Cl)c2)nn1` [6-(3-chloro-4-fluorobenzenesulfon-amidomethyl)-N-(pyrimidin-2-ylmethyl)pyridazine-3-carboxamide]: 10 µM and greater than 10 µM.
Regarding `Cn1cncc1CNC(=O)c1cnc(CNS(=O)(=O)c2ccc(F)c(Cl)c2)cn1` [5-(3-chloro-4-fluorobenzenesulfon-amidomethyl)-N-[(1-methyl-1H-imidazol-5-yl)methyl]pyrazine-2-carboxamide], the IC50 (read-out: Binned Activity) lay in the range of 1 to 10 µM.
Regarding `O=C(NCc1ccncn1)c1ccc(CNS(=O)(=O)c2ccc(F)c(Cl)c2)nn1` [6-(3-chloro-4-fluorobenzenesulfon-amidomethyl)-N-(pyrimidin-4-ylmethyl)pyridazine-3-carboxamide], the IC50 is 10 µM under setting [1] and greater than 10 µM (read-out: Binned Activity).
As for `Cc1ncc(CNC(=O)c2ccc(CNS(=O)(=O)c3cc(Cl)cc(Cl)c3)cn2)s1` [5-(3,5-dichlorobenzenesulfon-amidomethyl)-N-[(2-methyl-1,3-thiazol-5-yl)methyl]pyridine-2-carboxamide], the IC50 runs as follows: under setting [1], 10 µM; (read-out: Binned Activity) greater than 10 µM.
In the same order, the values of `Cc1ncc(CNC(=O)c2ccc(CNS(=O)(=O)c3ccoc3)cn2)s1` [5-(furan-3-sulfonamidomethyl)-N-[(2-methyl-1,3-thiazol-5-yl)methyl]pyridine-2-carboxamide] are 10 µM and greater than 10 µM.
In the same order, the values of `COc1cc(CNC(=O)c2ccc(CNS(=O)(=O)c3ccc(F)c(Cl)c3)nc2)ccn1` [6-(3-chloro-4-fluorobenzenesulfon-amidomethyl)-N-[(2-methoxypyridin-4-yl)methyl]pyridine-3-carboxamide] are 10 µM and greater than 10 µM.
In the case of `Cc1ncc(CNC(=O)c2cnc(CNS(=O)(=O)c3ccc(F)c(Cl)c3)c(C)n2)s1` [5-(3-chloro-4-fluorobenzenesulfon-amidomethyl)-6-methyl-N-[(2-methyl-1,3-thiazol-5-yl)methyl]pyrazine-2-carboxamide], for the setting “read-out: Binned Activity”, the IC50 was less than 0.1 µM.
For `Cc1csc(CNC(=O)c2ccc(CNS(=O)(=O)c3ccc(F)c(Cl)c3)nc2)n1` [6-(3-chloro-4-fluorobenzenesulfon-amidomethyl)-N-[(4-methyl-1,3-thiazol-2-yl)methyl]pyridine-3-carboxamide], the IC50 runs as follows: under setting [1], 10 µM; (read-out: Binned Activity) greater than 10 µM.
In the same order, the values of `O=C(NCc1ccoc1)c1ccc(CNS(=O)(=O)c2ccc(F)c(Cl)c2)cn1` [5-(3-chloro-4-fluorobenzenesulfon-amidomethyl)-N-(furan-3-ylmethyl)pyridine-2-carboxamide] are 10 µM and greater than 10 µM.
With `Cc1ncc(CNC(=O)c2ccc(CNS(=O)(=O)c3ccc(Cl)c(F)c3)cn2)s1` [5-(4-chloro-3-fluorobenzenesulfon-amidomethyl)-N-[(2-methyl-1,3-thiazol-5-yl)methyl]pyridine-2-carboxamide], under “read-out: Binned Activity”, the IC50 lay in the range of 1 to 10 µM.
